From PubChem BioAssay AID588735 (Vanderbilt Specialized Chemistry Center, 2011)

Target: Metabotropic glutamate receptor 5 (Rattus norvegicus) (UniProt P31424)
Experiment: PubChem AID 588735
Settings: HEK293 rat mGluR5, calcium fluorescence, at 10 µM, stronger effect = higher value

Sequence of Metabotropic glutamate receptor 5 (Rattus norvegicus) (P31424 whole entry, looked up): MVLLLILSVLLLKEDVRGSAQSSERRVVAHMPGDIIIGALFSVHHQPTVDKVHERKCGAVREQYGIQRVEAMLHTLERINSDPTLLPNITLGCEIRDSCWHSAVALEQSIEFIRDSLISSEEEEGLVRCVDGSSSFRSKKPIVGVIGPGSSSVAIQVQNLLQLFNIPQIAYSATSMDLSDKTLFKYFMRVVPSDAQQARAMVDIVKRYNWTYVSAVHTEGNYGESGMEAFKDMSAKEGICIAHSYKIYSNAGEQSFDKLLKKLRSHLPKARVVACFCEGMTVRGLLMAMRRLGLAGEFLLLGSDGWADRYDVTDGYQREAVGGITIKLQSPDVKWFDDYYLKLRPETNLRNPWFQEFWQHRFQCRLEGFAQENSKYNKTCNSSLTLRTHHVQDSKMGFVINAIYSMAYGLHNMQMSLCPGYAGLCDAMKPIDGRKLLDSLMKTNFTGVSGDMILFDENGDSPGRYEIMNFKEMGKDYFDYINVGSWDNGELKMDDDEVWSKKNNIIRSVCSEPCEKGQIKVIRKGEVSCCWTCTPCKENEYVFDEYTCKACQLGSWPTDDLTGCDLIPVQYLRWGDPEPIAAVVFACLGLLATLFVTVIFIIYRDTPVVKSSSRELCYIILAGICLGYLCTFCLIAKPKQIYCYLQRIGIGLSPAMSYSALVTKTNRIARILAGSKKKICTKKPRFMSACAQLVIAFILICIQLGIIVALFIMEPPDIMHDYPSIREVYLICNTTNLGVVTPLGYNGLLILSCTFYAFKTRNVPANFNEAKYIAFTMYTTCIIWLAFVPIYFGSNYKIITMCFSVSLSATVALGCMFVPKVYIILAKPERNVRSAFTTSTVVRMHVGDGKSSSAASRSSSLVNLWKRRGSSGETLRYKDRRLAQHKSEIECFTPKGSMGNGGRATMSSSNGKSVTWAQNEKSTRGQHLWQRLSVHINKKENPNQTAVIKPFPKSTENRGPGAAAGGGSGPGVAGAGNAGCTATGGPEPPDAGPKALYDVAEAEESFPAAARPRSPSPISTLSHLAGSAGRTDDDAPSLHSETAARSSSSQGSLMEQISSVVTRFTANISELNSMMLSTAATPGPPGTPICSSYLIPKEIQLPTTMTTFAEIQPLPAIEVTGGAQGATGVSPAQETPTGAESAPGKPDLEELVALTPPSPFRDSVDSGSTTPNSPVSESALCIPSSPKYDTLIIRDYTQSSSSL

fold shift: 4.6
Emax (glutamate fold shift, glutamate max response with compound): 62%
Emin (glutamate fold shift, glutamate min response (ago-PAM)): 45%
SMILES: C[C@@H](NC(=O)c1ccc(C#Cc2cccc(F)c2)cn1)C(C)(C)O
